Data set [1] can be described thus: Pharmacokinetics assay in rats, oral administration. In kind it is in vivo. The following applies: rat; male SD rats, oral 5 mg/kg, plasma. The method, then:
SD rats were used as test animals.
5 g of hydroxyethyl cellulose (HEC, CMC-Na, viscosity: 800-1200 Cps) was dissolved in 1000 mL of purified water, and 10 g of Tween80 was added. The solution was mixed well to form a clear solution.
The solution was shaked well and subjected to ultrasound for 15 minutes to obtain a colorless and clear solution with a concentration of 0.5 mg/mL.
After an overnight fast, male SD rats (3 rats per group) were administrated orally with the test compounds at an administration dose of 5 mg/kg and an administration volume of 10 mL/kg.
0.2 mL of blood was taken from jugular vein before administration and at 0.5 hour, 1.0 hour, 2.0 hours, 4.0 hours, 6.0 hours, 8.0 hours and 24.0 hours after administration. The blood samples were stored in EDTA-2K tubes, and centrifuged for 6 minutes at 6000 rpm, at 4° C. to separate the blood plasma. The plasma samples were stored at −80° C. The rats were fed four hours after administration.

Another data set has as its system NCI-H358 cells. The experiment in a line: Proliferation inhibition of NCI-H358 cells (CellTiter-Glo). As to conditions: Homo sapiens, NCI-H358, 72 h; 3 days incubation. In kind it is cell-based. The method, then: Experimental method: 3000 cells (90 μL of cell suspension) were inoculated to each well of a 96-well cell culture plate (Corning, #3610). The culture plate was incubated in an incubator overnight (37° C., 5% CO2). On the next day, 10 μL of gradient dilutions of the test compound solution (the final DMSO content was 0.2%, V/V, the final concentration of the reaction system ranged from 10 μM to 4.5 nM) was added to each well of the culture plate. At the same time, full activity control (compound only with DMSO) and full inhibition control (no cells) were set up on the reaction plate. The culture plate was incubated in the incubator for 3 days (37° C., 5% CO2).
After completion of the incubation, 50 μL of CellTiter-Glo reagent was added to each well of the cell culture plate, which was left to stand at room temperature for 10 minutes. The chemiluminescence signal value was measured in the Synergy H1 full-function microplate reader (BioTek). […] The IC50 value of the test compounds was calculated by fitting the percentage inhibition rate and data of eight concentrations to a four-parameter nonlinear logic formula with GraphPad prism.
The IC50 value was calculated by fitting the data of different concentrations and corresponding percentage inhibition rates to a four-parameter nonlinear logic formula with GraphPad prism.

The test system of data set [2] is human pancreatic cancer cell MiaPaca 2 xenograft. The experiment in a line: Tumor inhibition test on MiaPaca 2 xenograft model. In kind it is in vivo, Balb/c nude mice. The following applies: intragastric. The procedure:
Balb/c nude mice were used as test animals. In vivo pharmacodynamic test was carried out on human pancreatic cancer cell MiaPaca 2 xenograft (CDX) model to evaluate the anti-tumor effect of the test compounds.
MiaPaca 2 cells were taken from the cell bank and thawed. The cells were added to the DMEM medium (containing 10% FBS, 1% Glu and 1% P/S), and incubated in the CO2 incubator (the temperature of the incubator was 37° C., and the CO2 concentration was 5%). After the cells covered 80-90% of the bottom of the culture flask, the cells were passaged. After passage, the cells continued to be incubated in the CO2 incubator. The process was repeated until the number of cells met the inoculation requirement of the in vivo pharmacodynamic test. The cells in logarithmic growth phase were collected, and counted by the automatic cell counter. According to the counting results, the cells were resuspended with PBS and Matrigel (volume ratio: 1:1) to obtain a cell suspension (density: 8×10^7/ml), which was placed in an ice box for later use.
Female Balb/c nude mice (6-8 weeks old, body weight: about 18-22 grams) were used as test animals. The mice were maintained in an environment free of special pathogens and in a single ventilated cage (five mice per cage). All cages, bedding and water were disinfected before use. All animals had free access to standard certified commercial laboratory animal diets. The nude mice were marked with a disposable universal ear tag for rats and mice before the test. The skin of the inoculation site was disinfected with 75% medical alcohol before the inoculation. Each mouse was inoculated with 0.1 ml of MiaPaca 2 tumor cells (containing 8*10^6 cells) subcutaneously on the right back. When the average tumor volume reached 100 to 200 mm^3, administration was carried out. The test compounds were administered intragastrically daily. The tumor volume (mm^3) was measured with the vernier caliper twice a week. The tumor volume calculation formula: V=0.5*D*d*d, wherein D and d represent the long diameter and short diameter of the tumor, respectively. The anti-tumor efficacy was determined by dividing the average tumor increase volume of the compound-treated animals by the average tumor increase volume of the untreated animals. Tumor growth inhibition rate calculation formula: […]
All animals were euthanized after the experiment.

Data set [3] is described as follows: Pharmacokinetics assay in mice, oral administration. The data set is classed as in vivo. As to conditions: mouse; male Balb/c mice, oral 5 mg/kg, plasma. The procedure:
(§1) Balb/c mice were used as test animals.
5 g of hydroxyethyl cellulose (HEC, CMC-Na, viscosity: 800-1200 Cps) was dissolved in 1000 mL of purified water, and 10 g of Tween80 was added. The solution was mixed well to form a clear solution. […] The solution was subjected to ultrasound for 10 minutes to obtain a colorless and clear solution with a concentration of 0.5 mg/mL.
After an overnight fast, male Balb/c mice were administrated orally with the test compounds at an administration dose of 5 mg/kg and an administration volume of 10 mL/kg.
Blood was taken before administration and at 0.25 hour, 0.5 hour, 1 hour, 2 hours, 4 hours, 6 hours, 8 hours and 24 hours after administration. The blood samples were stored in EDTA-2K tubes, and centrifuged for 6 minutes at 6000 rpm, at 4° C. to separate the blood plasma. The plasma samples were stored at −80° C. The mice were fed four hours after administration.

The next data set is described as follows: Tolerance assay in mice. In kind it is in vivo, Balb/c mice. The following applies: 10 mg/kg QD oral. The procedure:
as §1
The solution was subjected to ultrasound for 10 minutes to obtain a colorless and clear solution with a concentration of 1 mg/mL.
After an overnight fast, Balb/c mice (3 male and 3 female) were administrated orally with the test compound at an administration dose of 10 mg/kg and an administration volume of 10 mL/kg.
The mice were weighed daily before and after administration, and abnormal responses were observed. The mice were fed four hours after administration.

In the case of `Cc1nc(N2CCC3(CC2)Cc2ncsc2[C@H]3N)c(CO)nc1Sc1ccnc(N)c1Cl` [Example 171, (S)-(6-((2-amino-3-chloropyridin-4-yl)thio)-3-(6-amino-4,6-dihydrospiro[cyclopenta[d]thiazole-5,4′-piperidin]-1′-yl)-5-methylpyrazin-2-yl)methanol], in data set [1], the AUC(0-inf) (as a rule, total exposure, with the tail of the curve extrapolated) worked out at 1780 ng·h/mL; the Cmax (commonly the highest concentration seen after dosing) stood at 189 ng/mL; the MRT (usually a mean duration of stay, worked out from the concentration-time curve) was determined as 5.78 h; the time to peak (Tmax) (usually the time from dosing to the highest level) is 1 h. Besides, in data set [1], the half-life (commonly how long it takes for the measured level to halve) is 3.69 h. In addition, the IC50 (commonly the concentration that gives 50% inhibition) in the data set with NCI-H358 cells turned out to be 11.9 nM. In data set [2] (6 mg/kg QD × 3 w), the “Tumor volume (Mean ± SD) Day 0” value was 167 ± 26 (168 ± 32) mm^3, the “TGI Day 21” value is given as 95.43%, the “Tumor volume (Mean ± SD) Day 21” value was found to be 198 ± 70 mm^3 and the “ΔT/ΔC Day 21” value was found to be 4.57%. Moreover, in data set [3], the AUC(0-inf) worked out at 2210 ng·h/mL, the peak level (Cmax) was 475 ng/mL, the MRT is 4.34 h and the Tmax turned out to be 0.5 h. Also, the half-life in data set [3] was 3.07 h.
Consider `Nc1nccc(Sc2cnc(N3CCC4(CC=C(C5CC5)[C@H]4N)CC3)cn2)c1Cl` [Example 144, (S)-8-(5-((2-amino-3-chloropyridin-4-yl)thio)pyrazin-2-yl)-2-cyclopropyl-8-azaspiro[4.5]dec-2-en-1-amine], for which, in data set [1], the AUC(0-inf) amounted to 3310 ng·h/mL, the Cmax is 247 ng/mL, the mean residence time (MRT) came out at 9.24 h and the Tmax was found to be 1 h. Further, the half-life in data set [1] is 6.49 h. Moreover, in the data set on NCI-H358 cells, the IC50 came out at 9.19 nM. For the same molecule, in data set [2] (3 mg/kg QD × 3 w), the “Tumor volume (Mean ± SD) Day 0” value was 172 ± 26 (173 ± 28) mm^3, the “TGI Day 21” value came out at 95.07%, the “Tumor volume (Mean ± SD) Day 21” value was determined as 216 ± 66 mm^3 and the “ΔT/ΔC Day 21” value was 4.93%. In data set [3], the AUC(0-inf) was 5390 ng·h/mL, the concentration peaked (Cmax) at 436 ng/mL, the MRT worked out at 9.08 h and the Tmax came out at 1 h.
As for `Nc1nc(N2CCC3(CC2)Cc2ncsc2[C@H]3N)c(F)nc1Sc1ccnc(N)c1Cl` [Example 181, (S)-1′-(6-amino-5-((2-amino-3-chloropyridin-4-yl)thio)-3-fluoropyrazin-2-yl)-4,6-dihydrospiro[cyclopenta[d]thiazole-5,4′-piperidin]-6-amine], in data set [1], the AUC(0-inf) is 5890 ng·h/mL, the Cmax is 614 ng/mL, the MRT is 5.84 h and the Tmax was 2 h. Further, in data set [1], the half-life is 3.55 h. In addition, in the data set on NCI-H358 cells, the IC50 worked out at 46.5 nM. Also, in data set [2] (10 mg/kg QD × 3 w), the “Tumor volume (Mean ± SD) Day 0” value was 176 ± 36 (176 ± 39) mm^3, the “TGI Day 21” value is on record as 92.94%, the “Tumor volume (Mean ± SD) Day 21” value amounted to 240 ± 86 mm^3 and the “ΔT/ΔC Day 21” value stood at 7.06%. In addition, in data set [3], the AUC(0-inf) stood at 8160 ng·h/mL, the peak concentration (Cmax) was determined as 1380 ng/mL, the mean residence time (MRT) worked out at 5.07 h and the Tmax was determined as 0.5 h. The same molecule had a half-life in data set [3] of 4.63 h.
On to `Nc1nc(N2CCC3(CC2)Cc2ccccc2[C@H]3N)c(F)nc1Sc1ccnc(N)c1Cl` [Example 179, (S)-1′-(6-amino-5-((2-amino-3-chloropyridin-4-yl)thio)-3-fluoropyrazin-2-yl)-1,3-dihydrospiro[indene-2,4′-piperidin]-1-amine], for which, in data set [1], the area under the curve AUC(0-inf) was 3840 ng·h/mL, the Cmax was found to be 201 ng/mL, the MRT is 15.2 h and the Tmax was 2 h. In data set [1], the half-life was 10.5 h. In addition, in “Tolerance assay in mice” (female mice), the “Body weight (Mean) Day 1” value is reported as 22.07 g, the “Body weight (Mean) Day 16” value was 25.09 g and the “Body weight changes ΔW/W1 (Mean) Day 16” value is reported as 13.80%. Further, in the data set “Tolerance assay in mice” (male mice), the “Body weight (Mean) Day 1” value was found to be 23.01 g, the “Body weight (Mean) Day 16” value is recorded as 28.30 g and the “Body weight changes ΔW/W1 (Mean) Day 16” value is 23.25%. Also, in the data set on NCI-H358 cells, the half-maximal inhibitory concentration (IC50) was 20.9 nM. Also, in data set [2] (6 mg/kg QD × 3 w), the “Tumor volume (Mean ± SD) Day 0” value is listed as 166 ± 28 (168 ± 32) mm^3, the “TGI Day 21” value worked out at 91.00%, the “Tumor volume (Mean ± SD) Day 21” value worked out at 227 ± 37 mm^3 and the “ΔT/ΔC Day 21” value came to 9.00%. In addition, in data set [3], the AUC(0-inf) came to 2440 ng·h/mL, the Cmax amounted to 179 ng/mL, the MRT was determined as 7.92 h and the Tmax was 0.5 h. In addition, the half-life in data set [3] is 5.23 h.

The values above are taken from patent US20210355105A1, “REGULATOR OF NITROGEN-CONTAINING HETEROAROMATIC DERIVATIVES, PREPARATION METHOD THEREFOR AND USE THEREOF” (Jiangsu Hansoh Pharmaceutical Group Co., Ltd., priority 2018, published 2021).
